# Entries after “also recorded” stand apart in the source; their conditions may differ.
# What was measured:
# [1] = test system: 20×6 mm incisional wounds on the back; experiment: Porcine skin wound study; assay type: in vivo, juvenile pigs
# Description: Overview of the Animal Study. In selecting the appropriate animal for this study, a pig was selected because of the anatomical similarities between pig skin and human skin. In fact, pig wound healing has been used in numerous studies to simulate human skin (Sullivan et al., Wound Repair Regen. 9: 66-76, 2001).
# Design of Study. In this study, juvenile pigs were oriented with twelve wound sites per animal—20×6 mm incisional wounds on the back—over the course of a six week study (see FIG. 2). Systemic relaxin was delivered via mini-pumps to achieve 20 ng/mL serum concentrations. Topical formulations were prepared by Dow Pharma, and consisted of propylene glycol and ethanol, which contributed to good long term stability of the therapeutic agent. Dosages consisting of placebo, 0.5 mg/mL (low dose), and 2.5 mg/mL (high dose) were prepared. The goals of the study were to assess the safety of topical relaxin on wound healing and to determine the efficacy of relaxin as a treatment for wound healing and/or scar formation. During the first week, irrigation was performed once daily. During weeks 2-3, topical formulation was applied twice daily, and during weeks […], topical formulation was applied once daily.
# Design of Drug. The study drug was relaxin (produced by recombinant technology). Recombinant relaxin is identical to the native human hormone H2 relaxin, produced using a recombinant single chain process. The active test article may be aseptically diluted to the desired concentration with the acetate diluent (20 mM sodium acetate, pH 5.0).
# Study Procedures. Referring to FIG. 3 which depicts the back of a pig with incisions according to the experimental design described herein at the completion of six weeks, the wound in Section 3 was irrigated with relaxin construct during the first week, and subsequently treated with high dose topical relaxin formulation during weeks 2-6 as described above. Sections 4, 5, and 6 received no irrigation during week 1. Section 4 was treated with placebo. Section 5 was treated with low dose topical formulation, and Section 6 was treated with high dose topical formulation.
# Cosmetic appearance of skin. Visual rankings of wound pictures were conducted by neutral observers who evaluated scabs during early wound healing (days 5-7) and scars at the end of the study (see FIG. 4). […] The results of this visual wound assessment determined that 89% of the time a relaxin treatment group was selected in the top three. Only 11% of the time, a group not treated with relaxin was selected in the top three.
# A cosmetic score was also determined by a professional dermatologist at weeks 2, 4, and 6. The cosmetic score has five components: (1) color—matching with surrounding skin; (2) texture—no hardness; (3) distortion—no distortion of nearby skin; (4) contour—flush with surrounding skin; (5) global—no hypertrophy or keloid formation. During this dermatological assessment, evaluation at time 2 weeks was obscured by scabs, so the data for cosmetic scores was collected from evaluation at weeks 4 and 6 (see FIG. 5). […] In the bottom profile, the scar is visible.
# Histological evaluation. A professional histopathologist evaluated the pathology of the treatments for such indications as granulation, inflammation, and necrosis. In judging granulation tissue, it is considered that early response to wound includes invasion of the site by fibroblasts, inflammatory cells, and new blood vessels. Over time, this resolves to more normal tissue as the site heals. Chronic inflammation characterized by the presence of macrophages, giant cells, lymphocytes, and PMNs indicated adverse reaction. Minor factors such as keratosis (formation of keratin layer outside the epidermis) and acanthosis (thickening of the epidermal layer) are also considered. […]
# wounded sites = conditions: systemic relaxin, rats; cited from earlier work
# tooth movement = conditions: RLX via gingival injections, dog models; cited from earlier work
# [2] = Canine gingiva study: RLX migration and degradation after gingival injection (SELDI-TOF MS); assay type: in vivo, dog; conditions: for migration of RLX through the gingiva: after gingival injection; for concentration of H2 RLX detected in treated gingiva: site of injection
# Experimental: The aim of this study was to determine the rate of RLX migration and extent of degradation after gingival injections. […] Employing a dog model, RLX was administered and tissue punch biopsies were collected at the site of injection and 0.5, 1 and 2 cm from the site of injection. Tissue was collected at several time points including 1, 2 and 4 hrs after injection. Protein was extracted from the gingival biopsies and analysed via ProteinChip technology (Surface Enhanced Laser Desorption/Ionization Time-of-Flight Mass Spectrometry, SELDI-TOF MS), which combines two well-established methods of solid phase chromatography and TOF-MS into an integrated platform. ProteinChip arrays were coated with anti-H2 RLX Ab, allowing the specific capture of RLX and associated breakdown/modified products.
# Design of Drug. Gingival injections were administered (25 μg H2 RLX/100 μl, 41 μM) and tissue was collected at several positions including the site of injection and 0.5, 1 and 2 cm from the site of injection. Tissue was collected 1, 2 and 3 hrs after injection.
# a) Protein Extraction and Quantitation. Frozen gingival biopsies were homogenized in extraction buffer (10 μl/mg tissue) containing 10 mM Tris-HCl, 10 mM NaCl, 0.1% TFA and protease inhibitor (complete mini, Roche). The extract was centrifuged (6000×g) for 10 min and the supernatant was collected, aliquoted and stored at −80° C. Total protein concentration was determined using the Bradford assay. Protein concentrations ranged from 1.4 mg/ml to 2.8 mg/ml, all samples were standardized to 1.4 mg/ml in extraction buffer.
# b) SELDI-TOF MS analysis—Analysis of RLX treated gingiva on PG20 arrays. Anti-H2 RLX Ab (2 μl/0.25 mg/ml; Genentech) or control IgG (Ciphergen Biosystems) was applied to each spot of a PS20 array which had been pre-coated with Protein G (Ciphergen Biosystems). After antibody binding, the chip was washed once with PBS/0.5% Triton X-100 for 5 min with agitation (5 μl per spot), followed by two PBS washes. Dog gingiva extracts (3 μl/1.4 mg/ml) were applied to each spot and incubated for 4 hrs. Non-specifically bound proteins were removed by sequentially washing with PBS/0.5% Triton X-100, PBS and 1 mM HEPES, pH 7.2. The chips were air dried and 1 μl of 50% saturated sinapinic acid in 50% (v/v) acetonitrile, 0.5% trifluoroacetic acid was applied onto each spot twice, arrays were air dried between each application. Chips were subsequently analysed by SELDI-TOF MS (Ciphergen Biosystems) using the following settings, laser 220 and sensitivity 9.
# c) Generation of H2 RLX Std Curve on PG20 arrays. H2 RLX (batch number 11835-89) was spiked into control dog gingiva (1.4 mg/ml) at different concentrations, including 100 nM, 50 nM, 12.5 nM, 6.25 nM, 3.125 nM and 1.56 nM and analysed as described above.
# [3] = as above; assay type: in vivo, dog
# [4] = systemic relaxin vs no systemic relaxin
# [5] = systemic relaxin, after six weeks, blinded histopathology
substance,measurement,setting,value
relaxin,blood vessels in the wound site,[1]; after about six weeks of treatment,overall reduction
same,relaxin treatment group selected in the top three in visual wound assessment,[1]; blinded neutral observers ranking best three of six groups of wound pictures,89 % of the time
same,adverse effects / tolerability over dose range,[1]; dose range 10-960 μg/kg/day,no relevant adverse effects; also recorded: well-tolerated
same,wound healing / cosmetic ranking with irrigation relaxin treatment versus topical only,[1]; irrigation week 1 then high dose topical weeks 2-6,particularly efficacious; also recorded: ranked higher overall
same,wound healing with topical-only relaxin compared to placebo,"[1]; low dose 0.5 mg/mL and high dose 2.5 mg/mL topical formulation, six weeks",improved wound healing
same,adverse effects associated with relaxin treatment,"[1]; pig, in vivo",no adverse effects
same,necrosis or inflammation associated with relaxin treatment,"[1]; pig, in vivo",no necrosis or inflammation
same,scarring on histopathological slide,"[1]; relaxin treatment, six weeks, no relaxin: severe scarring",mild scarring
same,wound healing after systemic treatment compared to topical administration,[1]; some indications,better wound healing
same,"collagen organization (objective collagen scoring, red pixel ratio)",[1]; [4],significantly better
same,composite wound healing score (three point collagen scale),[1]; [4],significantly improved
same,wound appearance versus control pig,"[1]; systemic relaxin, after day six","healed faster, better"
same,chronic inflammation in wound sites,[1]; [5],reduces; also recorded: significantly reduced
same,granulation tissue in wound sites,[1]; [5],reduces; also recorded: significantly reduced
same,scar visibility at wound site,"[1]; systemic relaxin, six weeks of treatment, vs placebo (red scar visible)",invisible; also recorded: no scar was visible
same,VEGF and bFGF transcripts,wounded sites,upregulation
same,new blood vessel formation selectively at wounded sites,wounded sites,increased
same,relapse,tooth movement,prevent relapse
same,tooth movement,tooth movement,speed tooth movement
same,RLX detection 0.5 cm from the site of injection,[2]; 1 hr time point,detected
same,RLX detection 1 cm from the site of injection,[2]; 1 hr time point,not detected
same,RLX detection 2 cm from the site of injection,[2]; 1 hr time point,not detected
same,migration of RLX through the gingiva,[2],stayed close to the injection site
same,migration of RLX through the gingiva,[2]; listed as RLX,stayed close to the injection site; also recorded: limited migration
same,concentration of H2 RLX detected in treated gingiva,[2]; 1 hr after gingival injection of 25 μg H2 RLX/100 μl,90 nM
same,concentration of H2 RLX detected in treated gingiva,[2]; 2 hrs after gingival injection of 25 μg H2 RLX/100 μl,78 nM
same,RLX detection at the remaining time points,[3]; 2 and 4 hrs,only detected at the site of injection
same,concentration of H2 RLX detected in treated gingiva,"[3]; site of injection, 4 hrs after gingival injection of 25 μg H2 RLX/100 μl",21 nM

# Source: patent US20110092439A1, “METHOD OF PROMOTING WOUND HEALING” (priority 2008, published 2011)
